Experimental data reported in paper PMC10478600, “Aryl derivatives of 3H-1,2-benzoxaphosphepine 2-oxides as inhibitors of cancer-related carbonic anhydrase isoforms IX and XII” (Journal of Enzyme Inhibition and Medicinal Chemistry, 2023).

Each compound was assayed against T1, CA I (Homo sapiens, UniProt P00915) (assay: stopped-flow CO2 hydrase assay). Settings: 6 h incubation; read-out: KI (μM)^a^,^b / CA I.
T1 construct: gene CA1; recombinant
T1 sequence (P00915 2-261): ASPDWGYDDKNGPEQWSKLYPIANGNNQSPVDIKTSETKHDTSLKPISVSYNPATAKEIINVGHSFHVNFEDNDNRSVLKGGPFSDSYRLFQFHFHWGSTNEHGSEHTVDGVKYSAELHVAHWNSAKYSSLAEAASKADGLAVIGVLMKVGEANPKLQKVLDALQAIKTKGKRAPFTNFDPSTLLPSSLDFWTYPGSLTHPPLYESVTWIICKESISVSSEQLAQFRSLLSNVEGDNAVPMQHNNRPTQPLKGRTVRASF
Format: biochemical
Text: stopped-flow CO2 hydrase assay on CA I
“7–(3-Fluorophenyl)-2-hydroxy-3H-benzo[f][1,2]oxaphosphepine 2-oxide [8h]” gave a Ki greater than 100 µM.

Same assay, conditions: read-out: KI (μM)^a^,^b / CA I
Compound O=P1(O)CC=Cc2cccc(-c3ccc(Cl)cc3)c2O1 [10d, 9–(4-Chlorophenyl)-2-hydroxy-3H-benzo[f][1,2]oxaphosphepine 2-oxide] has a Ki greater than 100 µM.
Work on CCOC(=O)c1ccc(-c2ccc3c(c2)OP(=O)(O)CC=C3)cc1 [9c, Ethyl 4–(2-hydroxy-2-oxido-3H-benzo[f][1,2]oxaphosphepin-8-yl)benzoate] yielded a Ki greater than 100 µM.
For O=P1(O)CC=Cc2cc(-c3ccc(F)cc3)ccc2O1 [8d, 7–(4-Fluorophenyl)-2-hydroxy-3H-benzo[f][1,2]oxaphosphepine 2-oxide], the Ki was greater than 100 µM.
O=P1(O)CC=Cc2cccc(-c3cc(Cl)cc(Cl)c3)c2O1 [10e, 9–(3,5-Dichlorophenyl)-2-hydroxy-3H-benzo[f][1,2]oxaphosphepine 2-oxide] showed a Ki greater than 100 µM.
In the case of O=[N+]([O-])c1cccc(-c2ccc3c(c2)C=CCP(=O)(O)O3)c1 [8k, 2-Hydroxy-7–(3-nitrophenyl)-3H-benzo[f][1,2]oxaphosphepine 2-oxide], the Ki was greater than 100 µM.
For O=P1(O)CC=Cc2ccc(Br)cc2O1 [7b, 8-Bromo-2-hydroxy-3H-benzo[f][1,2]oxaphosphepine 2-oxide], the Ki was greater than 100 µM.
O=P1(O)CC=Cc2cc(-c3cc(Cl)cc(Cl)c3)ccc2O1 [8g, 7–(3,5-Dichlorophenyl)-2-hydroxy-3H-benzo[f][1,2]oxaphosphepine 2-oxide] showed a Ki greater than 100 µM.
Work on O=P1(O)CC=Cc2ccc(-c3ccccc3)cc2O1 [9a, 2-Hydroxy-8-phenyl-3H-benzo[f][1,2]oxaphosphepine 2-oxide] yielded a Ki greater than 100 µM.
Work on O=[N+]([O-])c1ccccc1-c1cccc2c1OP(=O)(O)CC=C2 [10f, 2-Hydroxy-9–(2-nitrophenyl)-3H-benzo[f][1,2]oxaphosphepine 2-oxide] yielded a Ki greater than 100 µM.
Work on O=[N+]([O-])c1ccccc1-c1ccc2c(c1)OP(=O)(O)CC=C2 [9f, 2-Hydroxy-8–(2-nitrophenyl)-3H-benzo[f][1,2]oxaphosphepine 2-oxide] yielded a Ki greater than 100 µM.
In the case of O=P1(O)CC=Cc2ccc(-c3ccc(Cl)cc3)cc2O1 [9d, 8–(4-Chlorophenyl)-2-hydroxy-3H-benzo[f][1,2]oxaphosphepine 2-oxide], the Ki was greater than 100 µM.
With CC(C)(C)c1ccc(-c2ccc3c(c2)C=CCP(=O)(O)O3)cc1 [8l, 7–(4-(tert-Butyl)phenyl)-2-hydroxy-3H-benzo[f][1,2]oxaphosphepine 2-oxide] the Ki was greater than 100 µM.
For COc1ccc(-c2ccc3c(c2)C=CCP(=O)(O)O3)cc1 [8b, 2-Hydroxy-7–(4-methoxyphenyl)-3H-benzo[f][1,2]oxaphosphepine 2-oxide], the Ki was greater than 100 µM.
COC(=O)c1cccc(-c2ccc3c(c2)C=CCP(=O)(O)O3)c1 [8j, Methyl 3–(2-hydroxy-2-oxido-3H-benzo[f][1,2]oxaphosphepin-7-yl)benzoate] gave a Ki greater than 100 µM.
Compound O=P1(O)CC=Cc2cc(-c3ccc(Cl)cc3)ccc2O1 [8e, 7–(4-Chlorophenyl)-2-hydroxy-3H-benzo[f][1,2]oxaphosphepine 2-oxide] has a Ki greater than 100 µM.
CCOC(=O)c1ccc(-c2cccc3c2OP(=O)(O)CC=C3)cc1 [10c, Ethyl 4–(2-hydroxy-2-oxido-3H-benzo[f][1,2]oxaphosphepin-9-yl)benzoate] gave a Ki greater than 100 µM.
In the case of O=P1(O)CC=Cc2ccc(-c3cc(Cl)cc(Cl)c3)cc2O1 [9e, 8–(3,5-Dichlorophenyl)-2-hydroxy-3H-benzo[f][1,2]oxaphosphepine 2-oxide], the Ki was greater than 100 µM.
In the case of COc1ccc(-c2ccc3c(c2)OP(=O)(O)CC=C3)cc1 [9b, 2-Hydroxy-8–(4-methoxyphenyl)-3H-benzo[f][1,2]oxaphosphepine 2-oxide], the Ki was greater than 100 µM.
In the case of CCOC(=O)c1ccc(-c2ccc3c(c2)C=CCP(=O)(O)O3)cc1 [8c, Ethyl 4–(2-hydroxy-2-oxido-3H-benzo[f][1,2]oxaphosphepin-7-yl)benzoate], the Ki was greater than 100 µM.
For COc1ccc(-c2cccc3c2OP(=O)(O)CC=C3)cc1 [10b, 2-Hydroxy-9–(4-methoxyphenyl)-3H-benzo[f][1,2]oxaphosphepine 2-oxide], the Ki was greater than 100 µM.
For O=P1(O)CC=Cc2cc(-c3ccccc3)ccc2O1 [8a, 2-Hydroxy-7-phenyl-3H-benzo[f][1,2]oxaphosphepine 2-oxide], the Ki was greater than 100 µM.
Work on O=P1(O)CC=Cc2cc(-c3ccc(C(F)(F)F)cc3)ccc2O1 [8f, 2-Hydroxy-7–(4-(trifluoromethyl)phenyl)-3H-benzo[f][1,2]oxaphosphepine 2-oxide] yielded a Ki greater than 100 µM.
With O=P1(O)CC=Cc2cccc(-c3ccccc3)c2O1 [10a, 2-Hydroxy-9-phenyl-3H-benzo[f][1,2]oxaphosphepine 2-oxide] the Ki was greater than 100 µM.

Same assay, conditions: […] h incubation; read-out: KI (μM)^a^,^b / CA I
“2-Hydroxy-7-(o-tolyl)-3H-benzo[f][1,2]oxaphosphepine 2-oxide [8i]” gave a Ki greater than 100 µM.

The compounds below were run against T2, CA II (Homo sapiens, UniProt P00918) (assay: stopped-flow CO2 hydrase assay). Settings: 6 h incubation; read-out: KI (μM)^a^,^b / CA I.
T2 construct: gene CA2; recombinant
Format: biochemical
Text: stopped-flow CO2 hydrase assay on CA II
“7–(3-Fluorophenyl)-2-hydroxy-3H-benzo[f][1,2]oxaphosphepine 2-oxide [8h]” gave a Ki greater than 100 µM.

Same assay, conditions: read-out: KI (μM)^a^,^b / CA I
Work on O=P1(O)CC=Cc2cccc(-c3ccc(Cl)cc3)c2O1 [10d, 9–(4-Chlorophenyl)-2-hydroxy-3H-benzo[f][1,2]oxaphosphepine 2-oxide] yielded a Ki greater than 100 µM.
CCOC(=O)c1ccc(-c2ccc3c(c2)OP(=O)(O)CC=C3)cc1 [9c, Ethyl 4–(2-hydroxy-2-oxido-3H-benzo[f][1,2]oxaphosphepin-8-yl)benzoate] showed a Ki greater than 100 µM.
O=P1(O)CC=Cc2cc(-c3ccc(F)cc3)ccc2O1 [8d, 7–(4-Fluorophenyl)-2-hydroxy-3H-benzo[f][1,2]oxaphosphepine 2-oxide] showed a Ki greater than 100 µM.
For O=P1(O)CC=Cc2cccc(-c3cc(Cl)cc(Cl)c3)c2O1 [10e, 9–(3,5-Dichlorophenyl)-2-hydroxy-3H-benzo[f][1,2]oxaphosphepine 2-oxide], the Ki was greater than 100 µM.
Work on O=[N+]([O-])c1cccc(-c2ccc3c(c2)C=CCP(=O)(O)O3)c1 [8k, 2-Hydroxy-7–(3-nitrophenyl)-3H-benzo[f][1,2]oxaphosphepine 2-oxide] yielded a Ki greater than 100 µM.
O=P1(O)CC=Cc2ccc(Br)cc2O1 [7b, 8-Bromo-2-hydroxy-3H-benzo[f][1,2]oxaphosphepine 2-oxide] was tested, and the Ki was greater than 100 µM.
For O=P1(O)CC=Cc2cc(-c3cc(Cl)cc(Cl)c3)ccc2O1 [8g, 7–(3,5-Dichlorophenyl)-2-hydroxy-3H-benzo[f][1,2]oxaphosphepine 2-oxide], the Ki was greater than 100 µM.
Compound O=P1(O)CC=Cc2ccc(-c3ccccc3)cc2O1 [9a, 2-Hydroxy-8-phenyl-3H-benzo[f][1,2]oxaphosphepine 2-oxide] has a Ki greater than 100 µM.
In the case of O=[N+]([O-])c1ccccc1-c1cccc2c1OP(=O)(O)CC=C2 [10f, 2-Hydroxy-9–(2-nitrophenyl)-3H-benzo[f][1,2]oxaphosphepine 2-oxide], the Ki was greater than 100 µM.
Work on O=[N+]([O-])c1ccccc1-c1ccc2c(c1)OP(=O)(O)CC=C2 [9f, 2-Hydroxy-8–(2-nitrophenyl)-3H-benzo[f][1,2]oxaphosphepine 2-oxide] yielded a Ki greater than 100 µM.
Compound O=P1(O)CC=Cc2ccc(-c3ccc(Cl)cc3)cc2O1 [9d, 8–(4-Chlorophenyl)-2-hydroxy-3H-benzo[f][1,2]oxaphosphepine 2-oxide] has a Ki greater than 100 µM.
Compound CC(C)(C)c1ccc(-c2ccc3c(c2)C=CCP(=O)(O)O3)cc1 [8l, 7–(4-(tert-Butyl)phenyl)-2-hydroxy-3H-benzo[f][1,2]oxaphosphepine 2-oxide] has a Ki greater than 100 µM.
Compound COc1ccc(-c2ccc3c(c2)C=CCP(=O)(O)O3)cc1 [8b, 2-Hydroxy-7–(4-methoxyphenyl)-3H-benzo[f][1,2]oxaphosphepine 2-oxide] has a Ki greater than 100 µM.
In the case of COC(=O)c1cccc(-c2ccc3c(c2)C=CCP(=O)(O)O3)c1 [8j, Methyl 3–(2-hydroxy-2-oxido-3H-benzo[f][1,2]oxaphosphepin-7-yl)benzoate], the Ki was greater than 100 µM.
With O=P1(O)CC=Cc2cc(-c3ccc(Cl)cc3)ccc2O1 [8e, 7–(4-Chlorophenyl)-2-hydroxy-3H-benzo[f][1,2]oxaphosphepine 2-oxide] the Ki was greater than 100 µM.
CCOC(=O)c1ccc(-c2cccc3c2OP(=O)(O)CC=C3)cc1 [10c, Ethyl 4–(2-hydroxy-2-oxido-3H-benzo[f][1,2]oxaphosphepin-9-yl)benzoate] gave a Ki greater than 100 µM.
For O=P1(O)CC=Cc2ccc(-c3cc(Cl)cc(Cl)c3)cc2O1 [9e, 8–(3,5-Dichlorophenyl)-2-hydroxy-3H-benzo[f][1,2]oxaphosphepine 2-oxide], the Ki was greater than 100 µM.
For COc1ccc(-c2ccc3c(c2)OP(=O)(O)CC=C3)cc1 [9b, 2-Hydroxy-8–(4-methoxyphenyl)-3H-benzo[f][1,2]oxaphosphepine 2-oxide], the Ki was greater than 100 µM.
For CCOC(=O)c1ccc(-c2ccc3c(c2)C=CCP(=O)(O)O3)cc1 [8c, Ethyl 4–(2-hydroxy-2-oxido-3H-benzo[f][1,2]oxaphosphepin-7-yl)benzoate], the Ki was greater than 100 µM.
With COc1ccc(-c2cccc3c2OP(=O)(O)CC=C3)cc1 [10b, 2-Hydroxy-9–(4-methoxyphenyl)-3H-benzo[f][1,2]oxaphosphepine 2-oxide] the Ki was greater than 100 µM.
Work on O=P1(O)CC=Cc2cc(-c3ccccc3)ccc2O1 [8a, 2-Hydroxy-7-phenyl-3H-benzo[f][1,2]oxaphosphepine 2-oxide] yielded a Ki greater than 100 µM.
Compound O=P1(O)CC=Cc2cc(-c3ccc(C(F)(F)F)cc3)ccc2O1 [8f, 2-Hydroxy-7–(4-(trifluoromethyl)phenyl)-3H-benzo[f][1,2]oxaphosphepine 2-oxide] has a Ki greater than 100 µM.
O=P1(O)CC=Cc2cccc(-c3ccccc3)c2O1 [10a, 2-Hydroxy-9-phenyl-3H-benzo[f][1,2]oxaphosphepine 2-oxide] showed a Ki greater than 100 µM.

Same assay, conditions: […] h incubation; read-out: KI (μM)^a^,^b / CA I
Compound “2-Hydroxy-7-(o-tolyl)-3H-benzo[f][1,2]oxaphosphepine 2-oxide [8i]” has a Ki greater than 100 µM.

The compounds below were run against T1, CA I (assay: biochemical). Settings: 6 h incubation.
Design: stopped-flow CO2 hydration assay of recombinant human CA isoforms, inhibition constant
Protocol: (§1) The CA-catalysed CO2 hydration activity was assayed by using an applied photophysics stopped-flow apparatus as reported in previous papers from our group. All CA isoforms were recombinant proteins, obtained as reported earlier. The newly synthesised compounds 7–10 were investigated for their CA inhibition activity against four pharmacologically relevant human CA isoforms—the ubiquitous cytosolic CA I and II as well as the cancer-associated CA IX and XII. In this study, CA I and CA II are considered off-target isoforms, that were tested in order to explore the selectivity of inhibitors towards the CA IX and CA XII isoforms. The clinically utilised acetazolamide (AAZ) was used as a reference drug. The following structure-activity relationship (SAR) can be deduced from the inhibition data reported in Table 1: It is worthwhile to underline here that a 6-h incubation of the enzyme and each compound 7–10 solutions is essential. When the incubation period of 15 min was used for assaying the inhibition, as generally done for the other types of CA inhibitors, only a weak inhibition was observed (data not shown). Furthermore, it appears to be the case with coumarins and related bioisosteres. […]
Work on O=P1(O)CC=Cc2cc(-c3cccc(F)c3)ccc2O1 [8h, 7-(3-Fluorophenyl)-2-hydroxy-3H-benzo[f][1,2]oxaphosphepine 2-oxide] yielded a Ki greater than 100 µM.

The compounds below were run against T2, CA II (assay: biochemical). Settings: 6 h incubation.
Design: stopped-flow CO2 hydration assay of recombinant human CA isoforms, inhibition constant
Protocol: as §1
Compound O=P1(O)CC=Cc2cc(-c3cccc(F)c3)ccc2O1 [8h, 7-(3-Fluorophenyl)-2-hydroxy-3H-benzo[f][1,2]oxaphosphepine 2-oxide] has a Ki greater than 100 µM.
